The values below come from PubChem BioAssay (NCI).

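Interpolation was linear, between the two tested concentrations surrounding the appropriate level; five concentrations were tested over 48 hours in 96-well plates. The concentration for 50% growth inhibition is given as GI50. TGI marks complete inhibition of growth.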

What all share (assay): inhibition of tumour cell growth, NCI panel, 48 h
Test [1] has as its system SW-620 colon.
Test [2] has as its system 786-0 renal.
Test [3] has as its system SR leukemia.
In test [4] the test system is SK-MEL-2 melanoma.
For test [5], the system named is NCI-H23 lung.
For test [6], the system named is CCRF-CEM leukemia.
Test [7] concerns TK-10 renal.
The test system of test [8] is MOLT-4 leukemia.
Test [9] relates to MCF7 breast.
The test system of test [10] is NCI/ADR-RES ovarian.
In test [11] the test system is HS 578T breast.

With `CS(=O)(=O)OCCCOS(C)(=O)=O`, the TGI in test [1], in [2], in test [3], in [4], in [5] and in test [6] was above 100 µM each time. The TGI in [7] and in test [8] was above 100 µM each time.

Consider `CC[C@@]12C=CC(=S)N(CCSc3ccccc3)[C@@H]1c1c(n(S(=O)(=O)c3ccc(OC)cc3)c3ccccc13)CC2`, for which the TGI in test [1], in test [2], in test [9], in test [4], in test [5] and in [6] was above 100 µM in each case. Moreover, the TGI in [10], in [7], in [8] and in test [11] was above 100 µM in each case.

For `O=C(N/N=C\c1ccccc1)Nc1cccc2ccccc12`, the TGI in test [1] is above 100 µM; in test [2], 30.1 µM; in [3] it was above 100 µM; in test [4] it was 95.3 µM; in test [5], above 100 µM; in test [6] it was above 100 µM. Also, the TGI was above 100 µM in [10], above 100 µM in test [7], above 100 µM in [8] and 66.7 µM in [11].

Turning to `COc1cc(C2c3cc4c(cc3[C@@H](Nc3cccc([N+](=O)[O-])c3)C3COC(=O)[C@H]23)OCO4)cc(OC)c1O` (stereo partly specified), the TGI is above 65.4 µM in test [1]; above 100 µM in test [9]; 36.5 µM in test [4]; 4.65 µM in test [5]; above 54.2 µM in test [10]; 3.37 µM in test [8].

For `Oc1ccc(C#CCOc2ccccc2)cc1CNCCN(Cc1ccccn1)Cc1ccccn1`, the GI50 in test [1] is 1.86 µM; in [9], 1.07 µM; in test [4], 2.08 µM; in test [5] it was 1.83 µM; in test [6], 0.833 µM; in test [10], 1.83 µM. Further, the GI50 in test [7] was 1.22 µM; in [8], 2 µM; in [11], 1.69 µM. Besides, the TGI in test [1] stood at 4.89 µM; in test [9] it was 4.43 µM; in test [4], 4.85 µM; in test [5] it was 5.51 µM; in [6], 10.7 µM; in [10] it was 6.68 µM. In addition, the TGI came out at 3.06 µM in [7], 5.56 µM in test [8] and 6.14 µM in test [11].

Regarding `O=C1C(NCCN2CCOCC2)=C(Cl)C(=O)c2ncccc21`, the TGI in [1] came out at 1.01 µM; in test [2], 1.6 µM; in [9], 1.14 µM; in test [3] it was 3.3 µM; in test [4], 1.11 µM; in test [5] it was 2.73 µM. For the same compound, the TGI worked out at 1.1 µM in [6], 2.78 µM in test [7], 5.69 µM in [8] and 2.87 µM in test [11].

With `O=C1ON=C2C3CC4CC12CC1(C3)C(=O)ON=C41`, the TGI in test [1], in test [2], in test [9], in test [3], in test [4] and in test [5] was above 100 µM throughout. In addition, the TGI in test [6], in [10] and in test [8] was above 100 µM each time.

As to `CCN1CCC(O)(c2ccc(Oc3ccc(C)cc3)cc2)C(C(=O)c2ccc(Oc3ccc(C)cc3)cc2)C1` (stereo unspecified), the TGI in [1] turned out to be 27.7 µM; in test [2], 17.2 µM; in test [9], 8.41 µM; in test [4] it was 35.9 µM; in test [5] it was 30.2 µM; in [6] it was 21.8 µM. In addition, the TGI was found to be 28.2 µM in test [10], 20.8 µM in [7], 69.1 µM in test [8] and 48.3 µM in [11].

In the case of `C#CCn1c(=O)c(Cl)cn(/C(=C/C(=O)OCC)C(=O)OCC)c1=O`, the TGI in [1] amounted to 5.46 µM; in [2], 3.83 µM; in test [9] it was 22.7 µM; in test [4] it was 35.6 µM; in test [5], 42.6 µM; in test [6] it was 13.3 µM. For the same compound, the TGI in [10] is above 79.3 µM; in test [7] it was 8.09 µM; in test [8], above 23.9 µM; in test [11], above 100 µM.

For the compound `O=C(OCc1ccccc1)N1CCN(C(=O)OCc2ccccc2)CCN(C(=O)OCc2ccccc2)CCN(C(=O)OCc2ccccc2)CCN(C(=O)OCc2ccccc2)CC1`, the TGI was above 100 µM in test [1]; 48.4 µM in [2]; above 100 µM in test [9]; above 100 µM in [4]; above 100 µM in test [10]; above 100 µM in [7]. Further, the TGI in test [8] and in test [11] was above 100 µM each time.

Turning to `COC(=O)[C@H](Cc1ccccc1)NP(=O)(O)OCC1C=CC(n2cc(C)c(=O)[nH]c2=O)O1` (stereo partly specified), the TGI in test [1], in [2], in test [9], in test [4], in test [5] and in test [6] was above 100 µM in each case. For the same compound, the TGI in test [10], in test [7], in [8] and in test [11] was above 100 µM throughout.

For `CC(Cc1ccccc1)NC1=NCCO1` (stereo unspecified), the TGI in [1] was above 100 µM; in test [9], above 100 µM; in [3], 63.5 µM; in test [4], above 100 µM; in [5] it was 51 µM; in test [8], 77.9 µM. The TGI in [11] is above 100 µM.

In the case of `CC1(CC2=C(C(=O)NCCO[Si](C)(C)C(C)(C)C)C3(OCCO3)C2=O)OCCO1`, the TGI in [1], in [2], in test [9], in test [4], in [5] and in [6] was above 100 µM each time. Besides, the TGI in [10], in test [7], in test [8] and in test [11] was above 100 µM in each case.
